Experimental data from PubChem BioAssay AID1626 (SRMLSC, 2009).

System: M. tuberculosis H37Rv growth inhibition
Test: M. tuberculosis H37Rv growth inhibitors, H37Rv strain (AID 1626)
Conditions: for IC90: measured here: IC90 against H37Rv; for CC50: measured here: Vero cell cytotoxicity

SMILES	IC50 [µM]	IC90 [µM]	CC50 [µM]
c1ccc(-c2nc(NCCCn3ccnc3)c3oc4ccccc4c3n2)cc1	2.81	3.16	> 40
Cn1c(-c2ccc3c(c2)OCO3)cnc1NCc1cccc(Cl)c1	11.4	13.1	> 40
Cc1cc(NC(=O)c2ccccc2)n(-c2nc3ccccc3[nH]2)n1	60.4	> 100	27.9
CCOC(=O)CSc1nc2c(c(-c3ccc(C)o3)c1C#N)CCCC2	2.36	3.53	
N#Cc1ccc(/C=C/C(=O)c2cccnc2)cc1	4.84	6.15	19.3
CSc1nc2ccc(NC(=O)C3CC(=O)N(Cc4ccccc4)C3)cc2s1 (configuration not stated)	5.17	7.75	
COc1ccc(NS(=O)(=O)c2ccc3nc(COc4cccc5ccccc45)[nH]c3c2)cc1	9.84	15	29.6
CCOc1ccc(NC2=C(OC)C(=O)c3ccccc3C2=O)cc1	28.3	44.1	> 40
Cc1nc2ccc(N)cc2s1	0.6	> 100	
COc1cc(CNc2ccc3c(c2)CCC3)cc(OC)c1O	46.4	> 100	
COc1cc(/C=C(\C#N)C(=O)NC2CCCCC2C)ccc1OS(=O)(=O)c1ccc(C)cc1 (configuration not stated)		> 100	9.49
CC(=O)n1cc(N(C(=O)CCl)c2ccccc2)c2ccccc21	3.1	7.33	0.792
O=C(OCC#CCSc1nc2ccccc2o1)c1cc2ccccc2o1	5.72	12.7	> 40
Cc1ccc(NC2=CC(=O)C(=O)c3ccccc32)cc1	1.49	1.94	6.94
Nc1nc(-c2cccc(F)c2)cs1	11.2	> 100	
O=C(O)c1ccc(N2C(=O)/C(=C/c3ccc(-c4ccc([N+](=O)[O-])cc4)o3)C=C2c2ccccc2)cc1	19	26.5	20.1
COc1cc(OC)cc(C(=O)Nc2nc(-c3ccccc3)c(-c3ccccc3)o2)c1	0.322	4.94	30.9
O=C(NCCc1ccc(Cl)cc1)c1ccc(CNc2c(N3CCOCC3)c(=O)c2=O)cc1	2.85	3.19	
O=C(COc1ccc2ccccc2c1)Nc1nccs1		> 100	
Clc1ccc(CNc2nc(CN3CCOCC3)nc3scc(-c4ccccc4)c23)cc1	22	25	> 40
COc1cnc(-c2ccccn2)nc1Sc1ccc(C)cc1	< 0.195	2.92	4.24

SMILES	IC50 [µM]	IC90 [µM]	CC50 [µM]
CCOC(=O)c1ccc(N/C=C2\CCCCC2=O)cc1		> 100	
CCOC(=O)C1(CCOc2ccccc2)CCN(C(=O)c2ccc(-n3cccn3)cc2)CC1	27.2	> 100	> 40
CCOC(=O)C1=C(CC)Nc2ccccc2N=C1NC(=O)Nc1ccc(Cl)c(Cl)c1	2.73	3.1	10.3
Cc1[nH]n(C2=NCCS2)c(=O)c1N=Nc1cccc(C(F)(F)F)c1	0.387	1.47	9.46
COC(=O)CSc1nc2c(c(-c3ccco3)c1C#N)CCCC2	3.08	3.39	
CSc1nc(-c2ccccc2)nc(C(Cl)Cl)n1	1.37	2.04	6.42
CCCCc1ccc(NC(=O)C(C)CC)cc1 (configuration not stated)	6.21	> 100	
Cc1ccc(-c2noc(-c3cc4ccccc4oc3=O)n2)cc1	1.5	> 100	
c1ccc(-c2cc(-c3ccncc3)nc3ccc4ccccc4c23)cc1			> 40
Cc1ccc(Cn2ccc(=O)c(OCc3c(Cl)cccc3Cl)c2C)cc1	8.57	11.8	> 40
CCOC(=O)c1ccc(N/C=C2/CCCC(C)C2=O)cc1 (configuration not stated)	10.9	> 100	
Cc1ccc(-c2[nH]nc(N)c2N=Nc2ccccc2C)cc1	5.45	8.36	> 40
Cc1nc(N/C(N)=N/S(=O)(=O)c2ccc([N+](=O)[O-])cc2)nc2ccccc12	9.12	> 100	> 40
O=C(Nc1ccc(F)cc1F)Nc1csc2ccccc12	< 0.391	52.7	> 40
C/C(=N\N=C(/N)SC1CC(=O)N(c2ccc(Br)cc2)C1=O)c1cccs1 (configuration not stated)	9.24	16.8	> 40
O=C(CSc1cccc2cccnc12)N1CCCC1			27.4
COc1ccc(-c2nnc(SC(C(=O)c3c[nH]c4ccccc34)c3ccccc3)n2N)cc1OC (configuration not stated)		> 100	> 40
COc1ccc(-c2nnc(NC(=O)c3cc(Cl)ccc3Cl)o2)cc1	1.2	> 100	38.8
Clc1ccc2c(c1)C1=C(C(c3ccncc3)O2)C(c2ccc(Br)cc2)n2ncnc2N1 (configuration not stated)	2.91	3.29	> 40
CCC/C(O)=C1\C(=O)CCCC1=NCCc1c(C)[nH]c2ccc(C)cc12		> 100	
O=C(CSc1ncnc2c1oc1ccccc12)OCc1ccccc1	7.79	26.8	

SMILES	IC50 [µM]	IC90 [µM]	CC50 [µM]
COC(=O)C(C)Oc1ccc(-c2nccc(-c3cccs3)n2)cc1 (configuration not stated)	0.829	2.74	
CO[C@H]1C=CO[C@@]2(C)Oc3c(C)c(O)c4c(O)c(c5c(c4c3C2=O)NC2(CCN(CC(C)C)CC2)N=5)=NC(=O)C(C)=CC=C[C@H](C)[C@H](O)[C@@H](C)[C@@H](O)[C@@H](C)[C@H](OC(C)=O)[C@@H]1C	< 0.195	< 0.195	> 40
C=CCSc1nnc(-c2ccc([N+](=O)[O-])cc2)o1	< 0.195	0.843	
CCOc1ccc(Nc2nc(N)nc(CCl)n2)cc1	23.2	> 100	0.194
COCCOC(=O)c1c(C)oc2ccc(OC(=O)c3ccco3)cc12	7.1	> 100	
CC(C)c1ccc(-n2cccc2/C=C2/C(=N)N3C=CSC3=NC2=O)cc1	11.9	> 100	> 40
O=C(NC12CC3CC(CC(C3)C1)C2)c1ccc(-c2ccc(Br)cc2)o1	6.56	12.7	35.3
Cc1cccc(CN2C(=O)[C@@H]3Cc4c([nH]c5ccccc45)C(C)(C)N3C2=O)c1	8.69	14.3	> 40
CCOC(=O)c1ccc(NC(=O)CCc2nc(-c3ccccc3Cl)no2)cc1	0.511	57.8	> 40
CCCCc1nc2sc3c(SCCN(C)C)ncnc3c2c2c1CCC2	12.8	25.4	> 40
COc1ccc(N=Cc2c(O)c3ccccc3oc2=O)cc1		> 100	> 40
Clc1ccc(-c2nnc3sc(Cc4cccs4)nn23)cc1	19.6	> 100	
Cc1ccc(NC(=O)CSc2ccc(-c3ccccn3)nn2)cc1	1.98	2.74	> 40
c1ccc(-c2cc3c(N4CCN(c5ccccc5)CC4)ncnc3s2)cc1	11.3	> 100	
COC(=O)CSc1nnc(-c2sc3ccccc3c2Cl)o1	8.67	36.2	
Clc1cccc(-c2nc(NCCN3CCOCC3)c3ccccc3n2)c1	12.6	17.6	> 40
Nc1nc2c(s1)COc1ccccc1-2		> 100	
COC(=O)c1ccccc1Sc1ncnc2onc(C)c12	15.3	30.7	> 40
Cc1ccccc1-c1cc(C(=O)Nc2nc3c(s2)CCCC3)c2ccccc2n1	4.41	12.7	> 40
CC(C)c1ccc(C2C3=C(CC(C)(C)CC3=O)NC3=C2C(=O)c2ccccc23)cc1 (configuration not stated)	50.6	> 100	> 40
Cc1nccc(-c2ccc(-n3c(C)ccc3C)cc2)n1		> 100	> 40

SMILES	IC50 [µM]	IC90 [µM]	CC50 [µM]
COc1ccc(-c2oc3ncn(Cc4ccco4)c(=N)c3c2-c2ccc(OC)cc2)cc1	8.35	13.9	23.7
CNC(=O)c1nnsc1S(=O)(=O)c1ccc(Cl)cc1	21.6	22.2	8.55
Cc1cc(C)n2c(SCc3ccc(Br)cc3)nnc2n1			> 40
Cc1ccc(CNCC(O)(c2ccccc2)c2ccc(Cl)cc2)cc1 (configuration not stated)	8.17	10.9	> 40
O=C(NCCc1c[nH]c2ccccc12)c1cc2ccccc2oc1=O	< 0.195	< 0.195	
Cc1ccc(S(=O)(=O)NCCC(=O)Nc2ccc(C)c(Cl)c2)cc1C	19.8	> 100	> 40
CCOc1ccc(NC(=O)CSc2ccccc2N)cc1		> 100	
CCn1cc(C(=O)NCc2cccc(F)c2)c(=O)c2cc(F)c(N3CCN(C(=O)c4ccco4)CC3)cc21	2.69	6.52	27
CCn1ccnc1CN(C)Cc1cn(-c2ccc(C)cc2)nc1-c1cccc(C)c1	2.73	3.64	> 40
Brc1c(-c2ccc3c(c2)OCO3)nc2ncccn12	2.23	7.15	> 40
CCC(=O)Nc1nc2ccccc2n1Cc1ccc(C)cc1	1.39	11	> 40
COC(=O)c1c(C)oc2ccc(OC(=O)c3cccs3)cc12	1.1	17.8	
COc1ccc(NC2=CC(c3ccc(OC)cc3)N(c3ccc(OC)cc3)C2=O)cc1 (configuration not stated)		> 100	> 40
Cc1ccc(Cc2cnc(NC(=O)c3cccs3)s2)cc1	5.91	6.69	> 40
COc1ccc(N=C/C=C2/C=C(c3ccccc3)OC(C)(C)O2)cc1	63.4	> 100	
CCN(CC)Cc1nc2c(c(=O)[nH]1)C1(CCCCC1)Cc1ccccc1-2	6.77	> 100	
COc1ccc(C(=O)CNc2ccc3ccccc3c2)cc1	4.74	> 100	
CCCCc1ccc(NC(=O)C2CCCO2)cc1 (configuration not stated)	1.71	> 100	
Cc1cccc(N2CCN(C(=O)c3ccc4nc(N5CCCCC5)sc4c3)CC2)c1C	7.98	11.2	> 40
